Experimental data: patent US20020026069A1 (priority 1998, published 2002)

What was measured:
[1] = Stability of the solid on storage or heating; format: physicochemical
Hygroscopicity = format: physicochemical
Solubility = format: physicochemical
[2] = incubation for 6 months at 40° C.; composition produced by the Milman process (U.S. Pat. No. 5,354,885); cited from earlier work
Particle size = format: physicochemical; conditions: free base obtained by this process
[3] = Stability in aqueous solution; format: physicochemical; conditions: pH 2-3
[4] = cited from earlier work
[5] = cited from earlier work; remark: listed apart in the source
[6] = synthesized by the methods of GB 1,364,505 / U.S. Pat. No. 3,803,120
[7] = free base obtained by this process

CCOC(=O)[C@@H](N)Cc1ccc(O)c(O)c1.Cl [L-DOPA ethyl ester hydrochloride salt, L-DOPA ethyl ester hydrochloride, reference compound]
stability [1, 6]: not stable
hygroscopicity (Hygroscopicity; [6]): hygroscopic

CCOC(=O)[C@@H](N)Cc1ccc(O)c(O)c1 [L-DOPA ethyl ester]
stability [1, 7]: stable
sensitivity to heat ([1]; produces cyclic levodopa and levodopa-levodopa ethyl ester): very sensitive to heat
stability [1, 6]: not stable
solubility in water (Solubility): soluble to a certain extent
L-DOPA ethyl ester remaining after incubation [2]: at least 97 % by weight
hygroscopicity (Hygroscopicity; [7]): non-hygroscopic
average particle size (Particle size): less than 60 μ
particle size range (Particle size): 18-180 μ
stability in the solution [3]: stable

N[C@@H](Cc1ccc(O)c(O)c1)C(=O)O [L-DOPA]
solubility [4]: very poor solubility
half-life in vivo [5]: short half-life
